37 compounds from the SangsterLogP compilation can be followed below.

In general, logP refers to a log measure of how a compound divides between an organic and an aqueous phase.

The nature of the series: method code SF-HPLC, from DOI: 10.1002/ps.2780400103.
As to `CCCCc1ccc(OCC(OC(=O)n2ccnc2)C(C)(C)C)cc1` (configuration not stated), the logP amounted to 4.97.

The compound `CC(C)(C)C(COc1ccc([N+](=O)[O-])cc1)OC(=O)n1ccnc1` (configuration not stated) showed a logP of 3.35.

In the case of `CC(C)(C)C(COc1ccc(C#N)cc1)OC(=O)n1ccnc1` (configuration not stated), the lipophilicity (logP) was 3.15.

In the case of `CC(C)(C)C(COc1ccc(Br)cc1)OC(=O)n1ccnc1` (configuration not stated), the logP is 4.37.

Turning to `CCCc1ccc(OCC(OC(=S)n2ccnc2)C(C)(C)C)cc1` (configuration not stated), the logP was 5.77.

`CCCOc1ccc(OCC(OC(=S)n2ccnc2)C(C)(C)C)cc1` (configuration not stated) showed a logP of 5.03.

In the case of `Cc1ccc(OCC(OC(=S)n2ccnc2)C(C)(C)C)cc1` (configuration not stated), the logP came to 4.66.

The compound `CC(C)(C)c1ccc(OCC(OC(=O)n2ccnc2)C(C)(C)C)cc1` (configuration not stated) returned a logP of 4.82.

In turn, `CC(C)c1ccc(OCC(OC(=O)n2ccnc2)C(C)(C)C)cc1` (configuration not stated) had a logP of 4.77.

The compound `CCc1ccc(OCC(OC(=O)n2ccnc2)C(C)(C)C)cc1` (configuration not stated) returned a logP of 4.1.

In the case of `CCCc1ccc(OCC(OC(=O)n2ccnc2)C(C)(C)C)cc1` (configuration not stated), the log partition coefficient (logP) was 4.73.

As for `COC(=O)c1ccc(OCC(OC(=O)n2ccnc2)C(C)(C)C)cc1` (configuration not stated), the log partition coefficient (logP) stood at 3.59.

Turning to `CC(C)(C)C(COc1ccc(-c2ccccc2)cc1)OC(=S)n1ccnc1` (configuration not stated), the logP is 6.06.

Compound `CC(C)(C)C(COc1ccc(Cl)cc1)OC(=O)n1ccnc1` (configuration not stated) had a log partition coefficient (logP) of 4.19.

Regarding `CCOC(=O)c1ccc(OCC(OC(=O)n2ccnc2)C(C)(C)C)cc1` (configuration not stated), the logP worked out at 4.12.

As for `CC(C)(C)C(COc1ccccc1)OC(=O)n1ccnc1` (configuration not stated), the lipophilicity (logP) came to 3.58.

The compound `CC(C)(C)C(COc1ccc(C(F)(F)F)cc1)OC(=O)n1ccnc1` (configuration not stated) returned a logP of 4.15.

On to `CC(C)(C)C(COc1ccc(S(C)(=O)=O)cc1)OC(=O)n1ccnc1` (configuration not stated), for which the logP turned out to be 2.59.

With `COc1ccc(OCC(OC(=S)n2ccnc2)C(C)(C)C)cc1` (configuration not stated), the logP turned out to be 4.31.

In turn, `CC(C)(C)C(COc1ccc(-c2ccccc2)cc1)OC(=O)n1ccnc1` (configuration not stated) showed a logP of 4.56.

For the compound `CCCCCc1ccc(OCC(OC(=O)n2ccnc2)C(C)(C)C)cc1` (configuration not stated), the logP amounted to 5.26.

On to `CC(C)(C)C(COc1ccc(F)cc1)OC(=S)n1ccnc1` (configuration not stated), for which the logP stood at 4.37.

For `CC(C)Oc1ccc(OCC(OC(=O)n2ccnc2)C(C)(C)C)cc1` (configuration not stated), the logP was determined as 4.08.

The compound `CCOc1ccc(OCC(OC(=S)n2ccnc2)C(C)(C)C)cc1` (configuration not stated) displayed a logP of 4.58.

`CCCOc1ccc(OCC(OC(=O)n2ccnc2)C(C)(C)C)cc1` (configuration not stated) registered a logP of 4.1.

`COc1ccc(OCC(OC(=O)n2ccnc2)C(C)(C)C)cc1` (configuration not stated) came in with a lipophilicity (logP) of 3.46.

`COC(=O)c1ccc(OCC(OC(=S)n2ccnc2)C(C)(C)C)cc1` (configuration not stated) gave a logP of 4.77.

Regarding `CC(C)(C)C(COc1ccc(F)cc1)OC(=O)n1ccnc1` (configuration not stated), the lipophilicity (logP) worked out at 3.68.

Turning to `CC(C)(C)C(COc1ccc(Br)cc1)OC(=S)n1ccnc1` (configuration not stated), the log partition coefficient (logP) is 5.11.

With `CC(C)(C)C(COc1ccc(Cl)cc1)OC(=S)n1ccnc1` (configuration not stated), the log partition coefficient (logP) was found to be 4.96.

`CC(C)c1ccc(OCC(OC(=S)n2ccnc2)C(C)(C)C)cc1` (configuration not stated): the logP is 5.21.

Compound `CCCCOc1ccc(OCC(OC(=O)n2ccnc2)C(C)(C)C)cc1` (configuration not stated) came in with a logP of 4.29.

Take `CC(C)(C)C(COc1ccccc1)OC(=S)n1ccnc1` (configuration not stated): the logP was 4.27.

On to `CCOc1ccc(OCC(OC(=O)n2ccnc2)C(C)(C)C)cc1` (configuration not stated), for which the log partition coefficient (logP) was determined as 3.86.

`CCc1ccc(OCC(OC(=S)n2ccnc2)C(C)(C)C)cc1` (configuration not stated) showed a logP of 5.09.

`CSc1ccc(OCC(OC(=O)n2ccnc2)C(C)(C)C)cc1` (configuration not stated) yielded a lipophilicity (logP) of 4.03.

The compound `CC(C)(C)C(COc1ccc(I)cc1)OC(=O)n1ccnc1` (configuration not stated) yielded a log partition coefficient (logP) of 4.3.
